Reference: patent US9945863B2, “Coiled coil helix cristae morphology 1 (CHCM1) tumor marker and cancer therapeutic target” (The Research Foundation of State University of New York, priority 2012, dated 2018)

Experiments:
CHCM1/CHCHD6 mRNA [1] = assay: Lentiviral shRNA knockdown of endogenous CHCM1/CHCHD6 (Northern and Western blot); format: cell-based; conditions: RKO human colon and MCF-7 breast cancer cells; M.O.I. 1.0 (FIG. 5A)
Procedure: (§1) Northern blot analyses were done according to standard procedure (23, 24). Briefly, total RNA was extracted by Trizol reagent (Invitrogen, Carlsbad, Calif.) and ˜15 μg of total RNA were size-separated on 1.2% agarose gel and transferred to nylon membrane (Whatman, GE Health care, Piscataway, N.J.). Human CHCM1/CHCHD6 cDNA probe was labeled with ^32P and hybridization was performed in QuikHyb solution (Stratagene, La Jolla, Calif.) at 65° C.
(§2) Western blotting and immunoprecipitations were done by standard procedures as previously described (25, 26). S-tag pull down experiments were performed using human cancer cells as well as bacterial lysates. Cell pellets were prepared and lysed in lysis buffer (50 mM Tris-HCl, pH 7.4, 120 mM NaCl, 0.1% NP-40, 10 mM NaF, 5 mM EDTA, 2 mM Na3VO4, 2 mM MgCl2, 10 mM KCl, 25 mM glycerophosphate, protease inhibitor cocktail, okadic acid and 1 mM PMSF) and S-tag pull down was performed by using S-protein agarose beads (Novagen, EMD Chemicals Group, Darmstadt, Germany) according to manufacturer's protocol. For S-tag pull down using bacterial lysates, wild type and deletion variants of S-tagged CHCM1/CHCHD6 were expressed in E. coli BL21 (DE3) and induced by 1 mM IPTG (isopropyl-1-thio-β-D-galactopyranoside) at 30° C. for 6 hr. Bacteria were lysed in a buffer containing 28 mM Tris, 135 mM NaCl, 1 mM dithiothreitol (DTT), 1% Triton-X 100 (w/v), protease inhibitor cocktail and 400 μg/ml […] for 30 min at room temperature, followed by 26,000×g centrifugation for 30 min (Sorvall RC5C Plus) and S-tag pull down was done according to manufacturer's protocol. GST-tagged Mitofilin was expressed in bacteria and gel-purified as previously described (27).
Endogenous CHCM1/CHCHD6 and Mitofilin were knocked-down by lentiviral shRNA-mediated approach (28). The pLKO.1 lentiviral vectors containing the scrambled or CHCM1/CHCHD6-specific shRNAs or Mitofilin-specific shRNAs were generated by The RNA interference Consortium and purchased from Open Biosystems (Huntsville, Ala.). Lentiviruses were produced and titered according to the supplier's protocols. In all experiments, the multiplicity of infection (M.O.I.) was 1.0. Five shRNAs to target five different regions of CHCM1/CHCHD6 were used. Artificial DNA sequences coding for shRNAs are as follows. The first part of the sequence is in sense orientation then loop (underlined) followed by antisense sequence: […]

[2] = test system: CHCM1/CHCHD6 protein levels; assay: Western blot of CHCM1/CHCHD6 protein levels after drug treatment; format: cell-based, human
Procedure: as §2

CHCM1/CHCHD6 mRNA [3] = assay: Northern blot of CHCM1/CHCHD6 mRNA after genotoxic drug treatment; format: cell-based, human
Procedure: as §1

[4] = test system: RKO cells stably expressing exogenous CHCM1/CHCHD6; assay: MTT assay, chemosensitivity of cells stably overexpressing CHCM1/CHCHD6; format: cell-based, human; conditions: etoposide 30 μM for 48 hr; clones C3 and C4 vs vector (FIG. 6B)
Source text: For stable transfections, expression vector pcDNA3.1 carrying HA/S-tagged CHCM1/CHCHD6 was used. The same vector without CHCM1/CHCHD6 insert was used for control transfection. RKO human colon cancer cells were transfected with these vectors using Lipofectamine 2000 (Invitrogen, Carlsbad, Calif.) and G418-resisitant colonies selected after approximately 2 weeks. Several independent colonies were picked up and expanded into mass culture and screened for the expression of exogenous CHCM1/CHCHD6. Several vector-only transfected colonies were also isolated, pooled and expanded into mass culture. CHCM1/CHCHD6 expressing clones B4, C3 and C4 were selected for further studies.
(§3) MTT powder (MTT, Methylthiazolyldiphenyl-tetrazolium bromide, available from Sigma-Aldrich, St. Louis, Mo., Cat. No. M2128) was dissolved in DMEM without fetal bovine serum and phenol red to a final concentration of 1 mg/ml and then added to cells and incubated for ˜1-4 hrs depending on cell confluency. Medium was then removed and equal volume of isopropanol with 0.04N HCl was added to dissolve the precipitate. Finally, absorbance was read at 570 nm wavelength subtracting background reading at 650 nm wavelength with a Bio-Rad Smart-Spec 3100 instrument.

[5] = test system: MDA231 and SK-Mel-103 cells; assay: MTT assay, chemosensitivity of CHCM1/CHCHD6 knockdown cells; format: cell-based, human; conditions: Adria 3 μM for MDA231, 1 μM for SK-Mel-103, 24 hr; knockdown vs scramble (FIG. 6A)
Source text: (§4) Endogenous CHCM1/CHCHD6 and Mitofilin were knocked-down by lentiviral shRNA-mediated approach (28). The pLKO.1 lentiviral vectors containing the scrambled or CHCM1/CHCHD6-specific shRNAs or Mitofilin-specific shRNAs were generated by The RNA interference Consortium and purchased from Open Biosystems (Huntsville, Ala.). Lentiviruses were produced and titered according to the supplier's protocols. In all experiments, the multiplicity of infection (M.O.I.) was 1.0. Five shRNAs to target five different regions of CHCM1/CHCHD6 were used. Artificial DNA sequences coding for shRNAs are as follows. The first part of the sequence is in sense orientation then loop (underlined) followed by antisense sequence:
as §3

[6] = test system: RKO, MCF7 and MDA231 cell lines; assay: MTT assay, cell growth in CHCM1/CHCHD6 knockdown cells; format: cell-based, human; conditions: knockdown vs scramble, MCF7, MDA231 (FIG. 5B)
Source text: as §4, §3

melanoma cells = assay: MTT assay, cell growth in CHCM1 knockdown melanoma cells; format: cell-based, human; conditions: knockdown vs scramble; melanoma cells (FIG. 24)
Source text: as §4, §3

RKO cells [7] = assay: Oxygen consumption rate measurement; format: cell-based, human; conditions: RKO knockdown vs scramble cells; p<0.05 (FIG. 11B)
Procedure: Intact cell oxygen consumption rate was measured by an Oxygraph system with DW1 Oxygen Electrode (Hansatech Instruments Ltd., Norfolk, U. K.) as described previously (30). Briefly, RKO cells with CHCM1/CHCHD6 knockdown or scramble knockdown were harvested by trypsinization and centrifugation at 2500 rpm. Approximately 1.5×10^6 cells were re-suspended in 300 μl growth medium for each sample and injected into the polarographic chamber for the intact cell-coupled oxygen consumption rate.

RKO cells [8] = assay: Mitochondrial ATP synthesis assay (luciferase-based); format: cell-based, human; conditions: RKO knockdown vs scramble cells; p<0.05 (FIG. 11A)
Procedure: Mitochondrial ATP synthesis assay was performed as reported previously (30). Briefly, CHCM1/CHCHD6 knockdown or scramble knockdown RKO cells were harvested, washed with glucose-free, serum free DMEM. Each sample with approximately 1.5×10^6 cells were re-suspended and incubated in 160 μl of buffer A (150 mM KCl, 25 mM Tris-HCl, 2 mM EDTA, 0.1% BSA, 10 mM potassium phosphate, pH 7.4, 0.1 mM MgCl2) with digitonin (40 μg/ml final concentration) for 1 min at room temperature. After a wash with buffer A, cells were centrifuged at 800×g at room temperature and pellets were re-suspended in 160 μl buffer A containing P^1, P^5-di (adenosine) pentaphosphate (0.15 mM). Subsequently, 10 μl of buffer B (0.5 M Tris-acetate, pH 7.75, 0.8 mM luciferin, 20 μg/ml luciferase), ADP (to 0.1 mM), malate and pyruvate (both to 1 mM) were added to the cell suspension. Oligomycin (1 μg/ml) was also added to one replicate of each sample prepared as above. Cells were transferred to a luminometer glass tubes and gently mixed with a vortex for 2 sec. Tubes were then placed in a luminometer (LUMAT LB 9507, Berthold Technologies, Germany) and light emission was recorded in the kinetic mode. The integration time for each reading was 1 sec. Interval between readings was 15 sec and a total recording time was 4 min. Finally, total cellular protein content of each sample was determined.

MCF7 cells = assay: Transmission electron microscopy of mitochondrial cristae, MCF7; format: cell-based, human; conditions: CHCM1/CHCHD6 knockdown
Source text: as §4
Scramble and CHCM1/CHCHD6 knockdown cells were harvested and fixed by Ito and Karnovsky's fixative (2.5% glutaraldehyde, 2% paraformaldehyde in 0.1 M cacodylate buffer, pH 7.4) at 4° C. overnight (29). The next day cells were rinsed with 0.1 M cacodylate buffer for 5 times, 5 min each. After fixing with 1% osmium tetroxide in 0.1 M cacodylate buffer for 1 hr on ice, the samples were rinsed with double-distilled H2O for 3 times, 8 min each and later fixed with 1% Tannic acid for 1 hr. […]

RKO cells [9] = assay: Transmission electron microscopy of mitochondrial cristae, RKO; format: cell-based, human; conditions: CHCM1/CHCHD6 knockdown
Source text: as §4
Scramble and CHCM1/CHCHD6 knockdown cells were harvested and fixed by Ito and Karnovsky's fixative (2.5% glutaraldehyde, 2% paraformaldehyde in 0.1 M cacodylate buffer, pH 7.4) at 4° C. overnight (29). The next day cells were rinsed with 0.1 M cacodylate buffer for 5 times, 5 min each. After fixing with 1% osmium tetroxide in 0.1 M cacodylate buffer for 1 hr on ice, the samples were rinsed with double-distilled H2O for 3 times, 8 min each and later fixed with 1% Tannic acid for 1 hr. After rinsing with double-distilled H2O for additional 3 times 8 min each, samples were dehydrated and embedded into Poly/Bed® 812 according to the protocol of Poly/Bed® 812 BDMA Mini-kit (Polyscience, Inc., Warrington, Pa.). Poly/Bed®-embedded cells were cut into 80-90 nm ultrathin serial sections by a diamond knife-DIATOME 45 degree (Diatome U S, Hatfield, Pa.). Sections were supported on nickel grids/200 mesh (Electron Microscopy Sciences, Hatfield, Pa.) and post-stained in 4% uranyl acetate and 4% lead citrate. Finally sections were observed under Tecnai™ Transmission Electron Microscope (BioTwin lens) with Advantage Plus CCD Camera System at an 80.0-kV acceleration voltage.

[10] = RKO cells, respiratory chain inhibitors, 24 hr or antimycin A 1 μg/ml, rotenone 0.1 μg/ml for various time points (FIGS. 12A-B)
[11] = multiple human cancer cell lines, etoposide 30 μM, ADRIAMYCIN 1.0 μM, 24 hr (FIG. 4C)
[12] = various human breast cancer cell lines (FIG. 23)
[13] = RKO human colon cancer cells, ADRIAMYCIN 0.5 μM (FIG. 4B)

## G6: lentiviral pLKO.1 CHCM1/CHCHD6-specific shRNA, SEQ ID NO: 5 (GCATGCTGCTATCCAGGATAACTCGAGTTATCCTGGATAGCAGCATGCT)
CHCM1/CHCHD6 mRNA [1]
  knockdown of endogenous CHCM1/CHCHD6 at mRNA and protein levels: effectively knocked down

## antimycin A
[2]; [10]
  CHCM1/CHCHD6 protein levels: did not appreciably affect

## COc1cc([C@@H]2c3cc4c(cc3[C@@H](O[C@@H]3O[C@@H]5CO[C@@H](C)O[C@H]5[C@H](O)[C@H]3O)[C@H]3COC(=O)[C@H]23)OCO4)cc(OC)c1O [etoposide]
CHCM1/CHCHD6 mRNA [3]; multiple human cancer cell lines, etoposide 30 μM for 24 hr, Northern blot (FIG. 4A)
  CHCM1/CHCHD6 mRNA expression: strongly down-regulated
[4]
  etoposide-mediated chemosensitivity in cells overexpressing CHCM1/CHCHD6 (cell viability, MTT): reduced
[2]; [11]
  CHCM1/CHCHD6 protein levels: down-regulated
[2]; [12]
  CHCM1 protein level: down-regulate
[5]
  drug-mediated chemosensitivity in CHCM1/CHCHD6 knockdown cells (cell viability, MTT): further increased

## COc1cccc2c1C(=O)c1c(O)c3c(c(O)c1C2=O)C[C@@](O)(C(=O)CO)C[C@@H]3O[C@H]1C[C@H](N)[C@H](O)[C@H](C)O1 [ADRIAMYCIN®, doxorubicin]
CHCM1/CHCHD6 mRNA [3]; [13]
  time by which CHCM1/CHCHD6 mRNA expression was reduced: ≤ 12 h
  time post-treatment until which mRNA down-regulation was maintained: 60 h
[2]; [11]
  CHCM1/CHCHD6 protein levels: down-regulated
[2]; [12]
  CHCM1 protein level: down-regulate
[5]
  drug-mediated chemosensitivity in CHCM1/CHCHD6 knockdown cells (cell viability, MTT): further increased

## G8: lentiviral pLKO.1 CHCM1/CHCHD6-specific shRNA, SEQ ID NO: 7 (GCTGAGATGTATAAACTGTCTCTCGAGAGACAGTTTATACATCTCAGCT)
[6]
  cell growth (MTT): reduces cell growth
Melanoma cells
  cell growth (MTT): growth inhibition
RKO cells [7]
  oxygen consumption rate: affects oxygen consumption rate
RKO cells [8]
  cellular ATP production: affects cellular ATP production
MCF7 cells
  Abnormal Mitochondria devoid or nearly devoid of cristae structures, Experiment 1: 65.2%
RKO cells [9]
  Abnormal Mitochondria devoid or nearly devoid of cristae structures, Experiment 1: 55.6%
  Abnormal Mitochondria devoid or nearly devoid of cristae structures, Experiment 2: 70.5% (74/105)
CHCM1/CHCHD6 mRNA [1]
  knockdown of endogenous CHCM1/CHCHD6 at mRNA and protein levels: effectively knocked down

## G7: lentiviral pLKO.1 CHCM1/CHCHD6-specific shRNA, SEQ ID NO: 6 (CTTTGGCCTTCAAGATGGCAACTCGAGTTGCCATCTTGAAGGCCAAAGT)
CHCM1/CHCHD6 mRNA [1]
  knockdown of endogenous CHCM1/CHCHD6 at mRNA and protein levels: effectively knocked down

## C=C(C)[C@H]1Cc2c(ccc3c2O[C@@H]2COc4cc(OC)c(OC)cc4[C@@H]2C3=O)O1 [rotenone]
[2]; [10]
  CHCM1/CHCHD6 protein levels: did not appreciably affect

## N.N.[Cl][Pt][Cl] [Cisplatin]
[2]; UACC-62 melanoma cells, 24 hrs (FIG. 22)
  CHCM1 protein level: downregulates

## G4: lentiviral pLKO.1 CHCM1/CHCHD6-specific shRNA, SEQ ID NO: 3 (GAGCGTATTGAGAGGAAGAATCTCGAGATTCTTCCTCTCAATACGCTCT)
[6]
  cell growth (MTT): reduces cell growth
Melanoma cells
  cell growth (MTT): growth inhibition
RKO cells [7]
  oxygen consumption rate: affects oxygen consumption rate
RKO cells [8]
  cellular ATP production: affects cellular ATP production
MCF7 cells
  Abnormal Mitochondria devoid or nearly devoid of cristae structures, Experiment 1: 58.3%
RKO cells [9]
  Abnormal Mitochondria devoid or nearly devoid of cristae structures, Experiment 1: 17.8%
CHCM1/CHCHD6 mRNA [1]
  knockdown of endogenous CHCM1/CHCHD6 at mRNA and protein levels: effectively knocked down

## G5: lentiviral pLKO.1 CHCM1/CHCHD6-specific shRNA, SEQ ID NO: 4 (CCTGAAGAAGGGACCAATCATCTCGAGATGATTGGTCCCTTCTTCAGGT)
CHCM1/CHCHD6 mRNA [1]
  knockdown of endogenous CHCM1/CHCHD6 at mRNA and protein levels: effectively knocked down
